Measurements published in patent publication US4855430A, “Polycyclicamine with psychotropic activity” (American Home Products Corporation, priority 1987, dated 1989).
Where a name gives a salt, the structure may show the parent alone. Read-outs that look alike come from different tables or passages of the source.

What was measured:
[1] = target: T1, 5-HT1A serotonin receptor (Rattus norvegicus, UniProt P19327); experiment: ex vivo inhibition of 5-HT1A serotonin receptor binding assay (3H-8-OH-DPAT, hippocampal tissue); settings: read-out: % Inhibition of 8-OH DPAT Binding at 1 μM
T1 construct: Hippocampal tissue is dissected and homogenized on ice; from tissue; host or cells: rat hippocampus (membrane homogenate)
T1 sequence (P19327 1-422): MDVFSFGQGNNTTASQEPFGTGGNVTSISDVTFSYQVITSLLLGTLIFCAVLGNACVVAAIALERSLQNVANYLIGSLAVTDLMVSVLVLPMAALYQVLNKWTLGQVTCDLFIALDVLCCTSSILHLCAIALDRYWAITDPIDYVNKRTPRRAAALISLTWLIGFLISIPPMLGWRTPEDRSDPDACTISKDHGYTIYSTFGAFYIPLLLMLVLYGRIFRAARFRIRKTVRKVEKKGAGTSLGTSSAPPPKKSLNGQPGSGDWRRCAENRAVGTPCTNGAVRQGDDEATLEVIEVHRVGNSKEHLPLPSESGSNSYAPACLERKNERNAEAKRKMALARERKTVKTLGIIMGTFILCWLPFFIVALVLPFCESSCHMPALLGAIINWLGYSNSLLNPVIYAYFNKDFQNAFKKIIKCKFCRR
Experimental: The assay is carried out as follows:
Several groups of rats (4-6 rats/group) are injected with test compound or the appropriate vehicle. Thirty minutes later, unless otherwise noted, rats are decapitated and their brains removed. Various brain regions are dissected and rapidly frozen and maintained at -70° C. until used.
The homogenate is then centrifuged at 20,000 rpm (RC5-B; 40,000 g) and the supernatant discarded. The pellet is resuspended in 40 vols of the same buffer and incubated at 37° C. for 10 minutes to aid in the removal of endogenous serotonin. The homogenate is then centrifuged (as above) and the supernatant discarded. The pellet is then resuspended in 100 vols of buffer B (50 mM Tris HCl, pH=7.7 containing 0.1% ascorbate, 10 μM pargyline and 4 mM CaCl2) and sonicated. An aliquot is taken for protein determination by the Lowry method and the remainder stored frozen at -70° C. until used.
The homogenate (50 μl; 0.4-0.6 mg protein/sample) is incubated with 100 μl (1.5-1.8 nM) ^3 H-8-hydroxy-2-(di-n-propylamino)tetraline in a final volume of 2 ml of buffer for 10 minutes at 37° C.
Specific binding obtained in vehicle-treated rats is compared to that obtained in animals receiving a single or various doses of test compound and expressed as percent of control.

[2] = target: limbic D-2 dopamine receptor (Rattus norvegicus, UniProt P61169); experiment: inhibition of limbic D-2 dopamine receptor binding (3H-spiroperidol), in vitro; settings: read-out: % Inhibition of H3-Spiroperidol Binding at 1 μM
Experimental: The compounds of the invention are also studied for their ability to inhibit limbic D-2 dopamine receptor binding. This in vitro assay measures the ability of the compounds tested to bind to the dopamine receptor sites.
The test is carried out as follows:
Several rats are decapitated and the brains are rapidly removed. Limbic brain tissue (nucleus accumbens, septal area, olfactory tubercle) is dissected and homogenized on ice in 9 volumes of buffer (50 mM Tris-HCl, 120 mM NaCl, 5 mM KCl, 1 mM CaCl2, 1 mM MgCl2, 0.1% L-ascorbic acid, 10 μM pargyline HCl, pH 7.1) using a Polytron homogenizer at setting 5 for three 15-sec bursts. The homogenate is then diluted 4-fold with buffer and centrifuged at 30,000×g for 20 minutes, and the supernatant is discarded. The pellet is resuspended in the same volume of buffer and recentrifuged as before, again discarding the supernatant. This pellet is then resuspended in the same volume of buffer used in the homogenization, and the protein content of this preparation is assayed by the Lowry method. The homogenate is stored frozen at -70° C. until use.
Thirty μl of the homogenate (0.2-0.3 mg protein/sample) are incubated with 0.3 mM ^3 H-spiroperidol (New England Nuclear) and various concentrations of test drug in a final volume of 1 ml of the above buffer for 10 minutes in a 37° C. water bath. At the end of the incubation, 3 ml of cold 50 mM Tris-HCl, pH 7.7, are added to each tube, and the contents are rapidly vacuum-filtered through Whatman GF/B glass-fiber filters. The filters are then rapidly washed 3 times with 3 ml of the same buffer, placed in scintillation vials, and shaken for 15 minutes with 10 ml of Hydrofluor (National Diagnostics) scintillation cocktail. The vials are then counted in a Packard 460 CD scintillation counter.
Specific binding is defined as total binding less binding in the presence of 1 μM (+)butaclamol. Binding in the presence of various concentrations of test drug is expressed as a percent of specific binding when no drug is present. […] Ki (inhibition constant) for the test drug is then calculated by the formula: [formula]

5-HT1A receptor = settings: literature, in words; cited from earlier work
[3] = West German Patent Application No. 3,321,969A; cited from earlier work
[4] = 1 μM, 3H-8-OH-DPAT, rat hippocampal tissue

limbic D-2 dopamine receptor, sequence (P61169 whole entry): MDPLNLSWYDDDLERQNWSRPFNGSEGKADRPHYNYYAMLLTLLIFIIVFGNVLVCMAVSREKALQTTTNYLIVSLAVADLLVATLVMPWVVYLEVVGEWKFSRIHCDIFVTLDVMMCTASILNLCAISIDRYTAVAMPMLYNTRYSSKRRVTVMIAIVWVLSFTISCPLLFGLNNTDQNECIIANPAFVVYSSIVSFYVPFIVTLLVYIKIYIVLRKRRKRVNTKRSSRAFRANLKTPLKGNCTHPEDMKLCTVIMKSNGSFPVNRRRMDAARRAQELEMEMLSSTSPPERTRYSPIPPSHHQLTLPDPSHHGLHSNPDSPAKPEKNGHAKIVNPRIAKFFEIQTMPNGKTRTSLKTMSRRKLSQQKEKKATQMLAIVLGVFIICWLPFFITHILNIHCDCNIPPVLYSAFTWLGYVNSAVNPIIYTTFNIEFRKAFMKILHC

Molecule `O=C(CCCN1CC2C3C=CC(CCC3)C2C1)c1ccc(F)cc1` (centres unmarked) [Example 3, 1-(4-Fluorophenyl)-4-(3,3a,4,5,6,7,8,8a-octahydro-4,8-ethenocyclohepta[c]pyrrol-2(1H)-yl)-1-butanone, hydrochloride, hydrate] has an inhibition at 1 µM [1] of 61% and an inhibition at 1 µM [2] of 100%.

Molecule `C1=CC2C3CCC3C1C1CN(CCc3ccc4ccccc4n3)CC21` (centres unmarked) [Example 4, 2,3,3a,4,4a,5,6,6a,7,7a-Decahydro-2-[2-(2-quinolinyl)ethyl]-4,7-etheno-2H-cyclobut[f]isoindole, dihydrochloride, hydrate] has an inhibition at 1 µM [1, 4] of 97% and an inhibition at 1 µM [2] of 17%.

With `C1=CC2C3CCC3C1C1CN(CCc3ccccn3)CC21` (centres unmarked) [Example 6, 2,3,3a,4,4a,5,6,6a,7,7a-Decahydro-2-[2-(2-pyridinyl)ethyl]-4,7-etheno-1H-cyclobut[f]isoindole, dihydrochloride, 1/4 hydrate] the inhibition at 1 µM [1, 4] was 89% and the inhibition at 1 µM [2] was 3%.

In the case of `C1=CC2C1C1C=CC2C2CN(CCc3ccc4ccccc4n3)CC12` (centres unmarked) [Example 7, 2,3,3a,4,4a,6a,6,7,7a-Octahydro-2-[2-(2-quinolinyl)ethyl]4,7-etheno-1H-cyclobut[f]isoindole, dihydrochloride, 11/4 hydrate], the inhibition at 1 µM [1, 4] is reported as 46%.

`Clc1cccc(N2CCN(CCCN3CC4CCC(CC4)C3)CC2)c1` [Example 8, 3-[3-[4-(3-Chlorophenyl)-1-piperazinyl]propyl]-3-azabicyclo[3.2.2]nonane, dihydrochloride] gave an inhibition at 1 µM [1] of 82% and an inhibition at 1 µM [2] of 11%.

With `Clc1cccc(N2CCN(CCCN3CC4C5C=CC(C6CCC56)C4C3)CC2)c1` (centres unmarked) [Example 9, 2-[3-[4-(3-Chlorophenyl)-1-piperazinyl]propyl]-2,3,3a,4,4a,5,6,7,7a-decahydro-4,7-etheno-1H-cyclobut[f]isoindole, trihydrochloride, dihydrate] the inhibition at 1 µM [2] was 40%.

With `O=C(CCCN1CC2C3C=CC(C4CC34)C2C1)c1ccc(F)cc1` (centres unmarked) [Example 10, 1-(4-Fluorophenyl)-4-(3,3a,4,4a,5,5a,6,6a-octahydro-4,6-ethenocycloprop[f]isoindole-2-(1H)-yl)-1-butanone, hydrochloride, sesquihydrate] the inhibition at 1 µM [2] was 93%.

With `c1ccc2nc(CCN3CC4CCC(CC4)C3)ccc2c1` [Example 12, 3-[2-(2-Quinolinyl)ethyl[-3-azabicyclo[3.2.2]nonane, dihydrochloride, dihydrate] the inhibition at 1 µM [1] was 30%.

`COc1ccccc1N1CCN(CCCN2CC3CCC(CC3)C2)CC1` [Example 13, 3-[3-[4-(2-Methoxyphenyl)-1-piperazinyl]propyl]-3-azabicyclo[3.2.2]nonane, trihydrochloride, 3/4 hydrate] showed an inhibition at 1 µM [2] of 55%.

For `O=C1c2ccccc2S(=O)(=O)N1CCCCN1CCN(c2ncccn2)CC1` [TVX Q 7821, 2-[4-[4-(2-pyrimidinyl)-1-piperazinyl]butyl]-1,2-benzisothiazol-3-(2H)one1,1-dioxide hydrochloride], the “binding at the 5-HT1A site” value (5-HT1A receptor) is listed as “demonstrate binding at the 5-HT1A site” and the antidepressant activity [3] is listed as “possess antidepressant activity”.

For `O=C1CC2(CCCC2)CC(=O)N1CCCCN1CCN(c2ncccn2)CC1` [buspirone, 8-[4-[4-(2-pyrimidinyl)-1-piperazinyl]butyl]-8-azaspiro[4.5]decane-7,9-dione], the “binding at the 5-HT1A site” value (5-HT1A receptor) is listed as “demonstrate binding at the 5-HT1A site”.

In the case of `CCCC(C)C1(CC)C(=O)NC(=O)NC1=O` (centres unmarked) [pentobarbital], the “binding at the 5-HT1A site” value (5-HT1A receptor) is listed as “do not act via the 5-HT1A receptor”.
